Data on 27 compounds can be found in patent US20260265265A1, “NOVEL BENZIMIDAZOLONE DERIVATIVE COMPOUND AS AUTOTAXIN INHIBITOR” (LG CHEM, LTD., priority 2023, published 2026).

Each structure is given as a SMILES string.

The target in this assay is T1, Recombinant Human ENPP-2/Autotaxin (Homo sapiens, UniProt Q13822).
T1 construct: purchased R&D systems 5255-EN
The experiment in a line: LysoPLD activity measurement (autotaxin enzyme inhibition, choline release, TOOS reagent). Particulars: LysoPLD inhibitory activity; substrate 14:0 LysoPC; absorbance at 555 nm. The assay is classed as biochemical. The method in brief:
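Enzyme and compound were preincubated for 30 min before adding 14:0 LysoPC substrate, diluted to 300 μM, for 90 minutes at 37° C. The choline product was quantified colorimetrically with TOOS reagent. Wells without compound held 1% DMSO.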
As for `O=C(O)c1cccc(C2(n3c(=O)n(-c4ccc(C5=CCOCC5)cc4)c4cc(Cl)ccc43)CC2)c1` [Example 121, 3-(1-(5-chloro-3-(4-(3,6-dihydro-2H-pyran-4-yl)phenyl)-2-oxo-2,3-dihydro-1H-benzo[d]imidazol-1-yl)cyclopropyl)benzoic acid], the IC50 – broadly, the concentration at which inhibition is half-maximal – was less than 10 nM. As for `O=C(O)c1cccc(C2(n3c(=O)n(-c4ccc(C5=CCOCC5)cc4)c4cc(Cl)ccc43)CC2)c1F` [Example 122, 3-(1-(5-chloro-3-(4-(3,6-dihydro-2H-pyran-4-yl)phenyl)-2-oxo-2,3-dihydro-1H-benzo[d]imidazol-1-yl)cyclopropyl)-2-fluorobenzoic acid], the figure is less than 10 nM.

`O=C(O)c1cccc(C2(n3c(=O)n(-c4ccc(C5=CCOC5)cc4)c4cc(Cl)ccc43)CC2)c1F` [Example 123, 3-(1-(5-chloro-3-(4-(2,5-dihydrofuran-3-yl)phenyl)-2-oxo-2,3-dihydro-1H-benzo[d]imidazol-1-yl)cyclopropyl)-2-fluorobenzoic acid]: the IC50 was less than 10 nM. Consider `O=C(O)c1cccc(C2(n3c(=O)n(-c4ccc(C5=CCOC5)cc4)c4cc(Cl)ccc43)CC2)c1` [Example 124, 3-(1-(5-chloro-3-(4-(2,5-dihydrofuran-3-yl)phenyl)-2-oxo-2,3-dihydro-1H-benzo[d]imidazol-1-yl)cyclopropyl)benzoic acid], for which the IC50 is less than 10 nM. The value for `O=C(O)c1ccc(Cn2c(=O)n(-c3ccc(N4CCOCC4)cc3)c3c(F)c(Cl)ccc32)cc1` [Example 125, 4-((5-chloro-4-fluoro-3-(4-morpholinophenyl)-2-oxo-2,3-dihydro-1H-benzo[d]imidazol-1-yl)methyl)benzoic acid] was 100 to 1000 nM.

In the case of `O=C(O)c1cccc(C2(n3c(=O)n(-c4ccc(C(=O)N5CCOCC5)cc4)c4cc(Cl)ccc43)CC2)c1` [Example 126, 3-(1-(5-chloro-3-(4-(morpholine-4-carbonyl)phenyl)-2-oxo-2,3-dihydro-1H-benzo[d]imidazol-1-yl)cyclopropyl)benzoic acid], the IC50 was less than 10 nM. For the compound `C[C@H]1COCCN1C(=O)c1ccc(-n2c(=O)n(C3(c4cccc(C(=O)O)c4)CC3)c3ccc(Cl)cc32)cc1` [Example 127, (S)-3-(1-(5-chloro-3-(4-(3-methylmorpholine-4-carbonyl)phenyl)-2-oxo-2,3-dihydro-1H-benzo[d]imidazol-1-yl)cyclopropyl)benzoic acid], the IC50 is less than 10 nM. Turning to `O=C(O)c1cccc(C2(n3c(=O)n(-c4ccc(C(=O)N5CC(O)C5)cc4)c4cc(Cl)ccc43)CC2)c1` [Example 128, 3-(1-(5-chloro-3-(4-(3-hydroxyazetidine-1-carbonyl)phenyl)-2-oxo-2,3-dihydro-1H-benzo[d]imidazol-1-yl)cyclopropyl)benzoic acid], the IC50 was less than 10 nM. Consider `O=C(O)c1cccc(C2(n3c(=O)n(-c4ccc(C(=O)N5CC(F)(F)C5)cc4)c4cc(Cl)ccc43)CC2)c1` [Example 129, 3-(1-(5-chloro-3-(4-(3,3-difluoroazetidine-1-carbonyl)phenyl)-2-oxo-2,3-dihydro-1H-benzo[d]imidazol-1-yl)cyclopropyl)benzoic acid], for which the 50% inhibitory concentration (IC50) is less than 10 nM. As for `O=C(O)c1cccc(C2(n3c(=O)n(-c4ccc(C(=O)N5CCC(F)(F)C5)cc4)c4cc(Cl)ccc43)CC2)c1` [Example 130, 3-(1-(5-chloro-3-(4-(3,3-difluoropyrrolidine-1-carbonyl)phenyl)-2-oxo-2,3-dihydro-1H-benzo[d]imidazol-1-yl)cyclopropyl)benzoic acid], the figure is less than 10 nM; as for `O=C(O)c1cccc(C2(n3c(=O)n(-c4ccc(C(=O)N5CCC(F)(F)CC5)cc4)c4cc(Cl)ccc43)CC2)c1` [Example 131, 3-(1-(5-chloro-3-(4-(4,4-difluoropiperidine-1-carbonyl)phenyl)-2-oxo-2,3-dihydro-1H-benzo[d]imidazol-1-yl)cyclopropyl)benzoic acid], less than 10 nM; as for `O=C(O)c1cccc(C2(n3c(=O)n(-c4ccc(C(=O)N5CCC(F)(F)C5)cc4)c4cc(Cl)ccc43)CC2)c1F` [Example 132, 3-(1-(5-chloro-3-(4-(3,3-difluoropyrrolidine-1-carbonyl)phenyl)-2-oxo-2,3-dihydro-1H-benzo[d]imidazol-1-yl)cyclopropyl)-2-fluorobenzoic acid], less than 10 nM. As for `O=C(O)c1cccc(C2(n3c(=O)n(-c4ccc(C(=O)N5CCC(F)(F)CC5)cc4)c4cc(Cl)ccc43)CC2)c1F` [Example 133, 3-(1-(5-chloro-3-(4-(4,4-difluoropiperidine-1-carbonyl)phenyl)-2-oxo-2,3-dihydro-1H-benzo[d]imidazol-1-yl)cyclopropyl)-2-fluorobenzoic acid], the IC50 is less than 10 nM. As for `O=C(O)c1cccc(C2(n3c(=O)n(-c4ccc(C(=O)N5CC(O)C5)cc4)c4cc(Cl)ccc43)CC2)c1F` [Example 134, 3-(1-(5-chloro-3-(4-(3-hydroxyazetidine-1-carbonyl)phenyl)-2-oxo-2,3-dihydro-1H-benzo[d]imidazol-1-yl)cyclopropyl)-2-fluorobenzoic acid], the figure is less than 10 nM; as for `O=C(O)c1cccc(C2(n3c(=O)n(-c4ccc(C(=O)N5CC6(COC6)C5)cc4)c4cc(Cl)ccc43)CC2)c1F` [Example 135, 3-(1-(3-(4-(2-oxa-6-azaspiro[3.3]heptane-6-carbonyl)phenyl)-5-chloro-2-oxo-2,3-dihydro-1H-benzo[d]imidazol-1-yl)cyclopropyl)-2-fluorobenzoic acid], less than 10 nM; as for `C[C@H]1COCCN1C(=O)c1ccc(-n2c(=O)n(C3(c4cccc(C(=O)O)c4F)CC3)c3ccc(Cl)cc32)cc1` [Example 136, (S)-3-(1-(5-chloro-3-(4-(3-methylmorpholine-4-carbonyl)phenyl)-2-oxo-2,3-dihydro-1H-benzo[d]imidazol-1-yl)cyclopropyl)-2-fluorobenzoic acid], less than 10 nM. As to `O=C(O)c1cccc(C2(n3c(=O)n(-c4ccc(C(=O)N5CC6(COC6)C5)cc4)c4cc(Cl)ccc43)CC2)c1` [Example 137, 3-(1-(3-(4-(2-oxa-6-azaspiro[3.3]heptane-6-carbonyl)phenyl)-5-chloro-2-oxo-2,3-dihydro-1H-benzo[d]imidazol-1-yl)cyclopropyl)benzoic acid], the IC50 was less than 10 nM. In the case of `O=C(O)c1cccc(C2(n3c(=O)n(-c4ccc(-c5nnc(C6CCC(F)(F)CC6)o5)cc4)c4cc(Cl)ccc43)CC2)c1` [Example 138, 3-(1-(5-chloro-3-(4-(5-(4,4-difluorocyclohexyl)-1,3,4-oxadiazol-2-yl)phenyl)-2-oxo-2,3-dihydro-1H-benzo[d]imidazol-1-yl)cyclopropyl)benzoic acid], the IC50 was less than 10 nM. As for `CN(C)C(=O)Cc1ccc(-n2c(=O)n(C3(c4cccc(C(=O)O)c4)CC3)c3ccc(Cl)cc32)cc1` [Example 139, 3-(1-(5-chloro-3-(4-(2-(dimethylamino)-2-oxoethyl)phenyl)-2-oxo-2,3-dihydro-1H-benzo[d]imidazol-1-yl)cyclopropyl)benzoic acid], the figure is less than 10 nM.

In the case of `O=C(O)c1cccc(Cn2c(=O)n(-c3ccc(N4CCN(C(=O)C5CC5)CC4)cc3)c3cc(Cl)ccc32)c1F` [Example 140, 3-((5-chloro-3-(4-(4-(cyclopropanecarbonyl)piperazin-1-yl)phenyl)-2-oxo-2,3-dihydro-1H-benzo[d]imidazol-1-yl)methyl)-2-fluorobenzoic acid], the IC50 is 10 to 100 nM.

For `CCC(=O)N1CCN(c2ccc(-n3c(=O)n(Cc4cccc(C(=O)O)c4F)c4ccc(Cl)cc43)cc2)CC1` [Example 141, 3-((5-chloro-2-oxo-3-(4-(4-propionylpiperazin-1-yl)phenyl)-2,3-dihydro-1H-benzo[d]imidazol-1-yl)methyl)-2-fluorobenzoic acid], the IC50 lay in the range of 10 to 100 nM. With `O=C(O)c1cccc(Cn2c(=O)n(-c3ccc(N4CCN(C(=O)C5CCC5)CC4)cc3)c3cc(Cl)ccc32)c1F` [Example 142, 3-((5-chloro-3-(4-(4-(cyclobutanecarbonyl)piperazin-1-yl)phenyl)-2-oxo-2,3-dihydro-1H-benzo[d]imidazol-1-yl)methyl)-2-fluorobenzoic acid], the half-maximal inhibitory concentration (IC50) is 10 to 100 nM.

As to `O=C(O)c1cccc(Cn2c(=O)n(-c3ccc(N4CCN(C(=O)C5CCC(F)(F)CC5)CC4)cc3)c3cc(Cl)ccc32)c1F` [Example 143, 3-((5-chloro-3-(4-(4-(4,4-difluorocyclohexane-1-carbonyl)piperazin-1-yl)phenyl)-2-oxo-2,3-dihydro-1H-benzo[d]imidazol-1-yl)methyl)-2-fluorobenzoic acid], the IC50 is 10 to 100 nM. On to `O=C(O)c1cccc(C2(n3c(=O)n(-c4nc5ccccc5s4)c4cc(Cl)ccc43)CC2)c1F` [Example 144, 3-(1-(3-(benzo[d]thiazol-2-yl)-5-chloro-2-oxo-2,3-dihydro-1H-benzo[d]imidazol-1-yl)cyclopropyl)-2-fluorobenzoic acid], for which the IC50 lay in the range of 10 to 100 nM. For `O=C(O)c1cccc(C2(n3c(=O)n(-c4ccc(CN5CCOCC5)cc4)c4cc(Cl)ccc43)CC2)c1` [Example 145, 3-(1-(5-chloro-3-(4-(morpholinomethyl)phenyl)-2-oxo-2,3-dihydro-1H-benzo[d]imidazol-1-yl)cyclopropyl)benzoic acid], the IC50 lay within 10 to 100 nM.

As to `O=C(O)c1cccc(C2(n3c(=O)n(-c4ccc(N5CCCC5)cc4)c4cc(Cl)ccc43)CC2)c1` [Example 146, 3-(1-(5-chloro-2-oxo-3-(4-(pyrrolidin-1-yl)phenyl)-2,3-dihydro-1H-benzo[d]imidazol-1-yl)cyclopropyl)benzoic acid], the IC50 was less than 10 nM.

For the compound `O=C(O)c1cccc(C2(n3c(=O)n(-c4ccc(N5CCOCC5)cc4)c4cc(Cl)ccc43)CC2)c1` [Example 147, 3-(1-(5-chloro-3-(4-morpholinophenyl)-2-oxo-2,3-dihydro-1H-benzo[d]imidazol-1-yl)cyclopropyl)benzoic acid], the IC50 was less than 10 nM.
